Experimental findings from patent publication US20230049350A1, “COMPOUNDS FOR TREATING BRAIN CANCER” (Purdue Pharmaceutical Products L.P., priority 2014, published 2023) are described below.

SMILES strings stand for the structures.

Assay [1] concerns U87 tumours. The assay is described as follows: Mice with implanted U87 tumours, time to progression (Example 3). The class given is in vivo. The settings on record: 60 mg/kg iv days 1, 8 and 15, FIG. 9. How it is done: The above procedure was followed in similar manner using the cell lines U87G and U251G. Once again, EDO-S101 (60 mg/kg) was administered intravenously via the tail vein, but in these experiments it was administered at days 1, 8 and 15. In place of bendamustime, TMZ was administered as a comparison at 16 mg/kg for 5 consecutive days, po. The mice were sacrificed after 28 days.

Assay [2] deals with U251. The assay is described as follows: Clonogenic survival with radiotherapy, U251. The following applies: 2.5 µM or 5 µM, 24 hr, plus radiotherapy, FIG. 10. Format: cell-based. How it is done:
In a first experiment, U251, U87 and T98G cell lines were treated with radiotherapy alone or with radiotherapy and EDO-S101.
For clonogenic survival, exponentially growing cells (70% confluence) were cultured in regular media and treated with EDO-S101 at the appropriate concentrations, or vehicle (final DMSO concentration of 0.1%) for 24 hr. Tumour cell irradiation was done using a 6 MV linear accelerator Elekta Synergy using a clinically calibrated irradiation field of 30 × 30 cm. Two cm thick plates of perspex were positioned above and below the cell culture flasks completely filled with medium to compensate for the build-up effect. Non-irradiated controls were handled identically to the irradiated cells with the exception of the radiation exposure. […] Colonies containing more than 50 cells were counted. The plating efficiency (PE) was calculated as the number of colonies observed/the number of cell plated. The surviving fraction was calculated as the number of colonies formed in the treated dishes compared with the number formed in the control. The survival curves were analyzed using SPSS (Chicago, IL) statistical software by means of a fit of the data by a weighted, stratified, linear regression, according to the linear-quadratic formula: S(D)/S(O)=exp-(aD+bD2).

Assay [3] deals with twelve tested GBM cell lines. Put plainly: GBM cell line viability, panel of twelve tested cell lines. Format: cell-based. The settings on record: in combination with 500 nM vorinostat. Here is the method:
In vitro experiments were devised in which a series of GBM cell lines representative for MGMT negative and MGMT positive tumour cells were used.
Compounds: 1-100 µM EDO-S101, 1-50 µM temozolomide (TMZ), 1-50 µM temozolomide + 500 nM vorinostat, 1-40 µM bendamustine, 1-40 µM bendamustine and 500 nM vorinostat.
Twelve glioblastoma cell lines representing grade III and IV gliomas and with different expression of MGMT, drug and radiotherapy sensitivity and five patient derived glioblastoma stem, cells were used (see above). […] Spheres were counted 5 days after treatment under an inverted microscope at ×4 magnification. A sphere was counted if it had at least 15 cells.
Cells were seeded at a density of 2 × 10^4 cells/ml in 24 well plates. […] Cells trypsinized and resuspended in 1.0 ml of saline were counted using the NucleoCounterTM NC-100 (automated cell counter systems, Chemotec, Cydevang, DK) in order to evaluate cell viability. […] IC50 values were calculated by the GraFit method (Erithacus Software Limited, Staines, UK). Cell viability was measured with the 3-(4,5 dimethylthiazol-2-yl)-2,5-diphenyl tetrazolium bromide (MTT; Sigma-Aldrich) assay.
IC50 and IC20 values for all twelve cell lines against bendamustine and vorinostat were also determined as described above. […]

With `Cn1c(CCCCCCC(=O)NO)nc2cc(N(CCCl)CCCl)ccc21` [EDO-S101], the “time to progression (TTP) versus control and TMZ” value in assay [1] is “significantly longer”. Also, the “% survival rate (surviving fraction) with radiotherapy versus radiotherapy alone” value in assay [2] was “considerably reduced”. As for `Cn1c(CCCC(=O)O)nc2cc(N(CCCl)CCCl)ccc21` [bendamustine], the “sensitivity of all cell lines (FIG. 5)” value in assay [3] was “highly sensitive except Mz54 and T98G”.
